Measured values as given in the NIST ThermoML archive (doi:10.1021/je200668a).

Conditions: Liquid, Pulse Transmission

O [water]
Conditions | speed of sound [m/s]
267.88 K, 349500 kPa | 1996.1
267.89 K, 199900 kPa | 1745.2
273.01 K, 49300 kPa | 1483.9
273.02 K, 200500 kPa | 1762.6
273.03 K, 50300 kPa | 1485.7
273.05 K, 100 kPa | 1399.3
273.07 K, 49200 kPa | 1484
273.07 K, 499800 kPa | 2214.4
273.08 K, 200700 kPa | 1763.5
273.08 K, 300600 kPa | 1930.8
273.08 K, 399700 kPa | 2080.1
273.09 K, 100 kPa | 1399.8
273.09 K, 100000 kPa | 1578.3
273.09 K, 150200 kPa | 1671.7
273.09 K, 150400 kPa | 1671.6
273.09 K, 349400 kPa | 2006.9
273.1 K, 100 kPa | 1398.7
273.1 K, 100500 kPa | 1579.6
273.1 K, 250700 kPa | 1849
273.1 K, 350400 kPa | 2009
273.1 K, 450500 kPa | 2150.3
273.1 K, 500400 kPa | 2215.2
273.1 K, 550500 kPa | 2281.3
273.1 K, 602100 kPa | 2345.3
273.11 K, 200300 kPa | 1762.7
273.11 K, 250300 kPa | 1848.4
273.11 K, 250600 kPa | 1848.7
273.11 K, 299900 kPa | 1929.5
273.11 K, 550200 kPa | 2281.4
273.12 K, 300000 kPa | 1929.7
273.12 K, 399600 kPa | 2079.5
273.12 K, 401000 kPa | 2081.2
273.12 K, 449300 kPa | 2149.5
273.12 K, 450200 kPa | 2149.8
273.12 K, 550300 kPa | 2276.8
273.12 K, 599500 kPa | 2342
273.13 K, 150200 kPa | 1672.1
273.13 K, 349700 kPa | 2007
273.13 K, 499900 kPa | 2214.6
273.18 K, 99800 kPa | 1577.5
278.05 K, 100 kPa | 1425.1
278.05 K, 500300 kPa | 2220.9
278.07 K, 349300 kPa | 2013.6
278.08 K, 200300 kPa | 1775.7
278.08 K, 349600 kPa | 2014.7
278.08 K, 400000 kPa | 2086.4
278.08 K, 450900 kPa | 2156.9
278.08 K, 602100 kPa | 2346.8
278.09 K, 49200 kPa | 1507.3
278.09 K, 400000 kPa | 2087.5
278.09 K, 449700 kPa | 2155.5
278.09 K, 500500 kPa | 2221.3
278.09 K, 550800 kPa | 2286.8
278.09 K, 700200 kPa | 2439.8
278.1 K, 299900 kPa | 1938.9
278.1 K, 400500 kPa | 2089.8
278.1 K, 500400 kPa | 2223.3
278.11 K, 561500 kPa | 2297.2
278.11 K, 640200 kPa | 2390.8
278.12 K, 200800 kPa | 1777.1
278.12 K, 250200 kPa | 1858.4
278.12 K, 299900 kPa | 1939.6
278.12 K, 450800 kPa | 2157.8
278.12 K, 600700 kPa | 2347.6
278.12 K, 650000 kPa | 2402.2
278.13 K, 48300 kPa | 1506
278.13 K, 150100 kPa | 1688.3
278.13 K, 200100 kPa | 1776.7
278.13 K, 250100 kPa | 1859.7
278.13 K, 250600 kPa | 1859.7
278.13 K, 550600 kPa | 2284.7
278.14 K, 150100 kPa | 1689.2
278.15 K, 100 kPa | 1424.8
278.15 K, 99600 kPa | 1597.6
278.16 K, 99900 kPa | 1599.9
278.16 K, 300500 kPa | 1940
278.17 K, 349800 kPa | 2017.6
278.17 K, 599300 kPa | 2344.6
278.17 K, 651900 kPa | 2402.7
278.17 K, 701300 kPa | 2451
278.19 K, 109200 kPa | 1614.9
278.19 K, 159900 kPa | 1705.3
278.19 K, 700600 kPa | 2446.5
278.24 K, 100 kPa | 1425.6
288 K, 450300 kPa | 2162.1
288.07 K, 300700 kPa | 1953.9
288.07 K, 600900 kPa | 2346.8
288.08 K, 100 kPa | 1463.4
288.08 K, 50800 kPa | 1549.6
288.08 K, 149800 kPa | 1717.5
288.08 K, 250500 kPa | 1878.9
288.08 K, 350800 kPa | 2026.4
288.08 K, 400300 kPa | 2094.6
288.08 K, 699800 kPa | 2453.6
288.09 K, 50900 kPa | 1549.8
288.09 K, 110900 kPa | 1650.2
288.09 K, 160100 kPa | 1733.4
288.09 K, 349600 kPa | 2026.1
288.09 K, 599500 kPa | 2345.8
288.1 K, 499500 kPa | 2226.5
288.1 K, 499700 kPa | 2225.7
288.11 K, 100 kPa | 1461.4
288.11 K, 200800 kPa | 1799.7
288.11 K, 299800 kPa | 1952.9
288.11 K, 599900 kPa | 2344.8
288.11 K, 700800 kPa | 2455.2
288.12 K, 200300 kPa | 1800.1
288.12 K, 250000 kPa | 1878.5
288.12 K, 399800 kPa | 2094.8
288.13 K, 100 kPa | 1462.4
